According to US10787446B2 (GENENTECH, INC., priority 2015, dated 2020):

Target: T1, hNav1.7 and the β1 subunit (Homo sapiens, UniProt Q15858)
T1 construct: expressed in transfected cells
Experiment: Tritiated compound competitive binding to membranes from cells heterologously expressing hNav1.7 and the β1 subunit (LBA)
Settings: competition with 100 pM [3H]compound, 18 h, room temperature; IC50 by 4 parameter logistic model
Protocol: Example 235 Tritiated Compound Binding to Membranes Isolated from Cells that Heterologously Express hNav1.7 and the β1 Subunit
Preparation of membranes containing recombinantly expressed sodium channels: Frozen recombinant cell pellets were thawed on ice and diluted to 4 times the cell pellet weight with ice cold 50 mM Tris HCl, pH 7.4 buffer. The cell suspensions were homogenized on ice using a motorized glass dounce homogeniser. Homogenates were further diluted 8.4 times with ice cold 50 mM Tris HCl, pH 7.4 buffer and then centrifuged at 200×g at 4° C. for 15 min. The supernatants were collected and centrifuged at 10000×g at 4° C. for 50 min. The pellets were then re-suspended in 100 mM NaCl, 20 mM Tris HCl, pH 7.4 buffer containing 1% v/v protease inhibitors (Calbiochem) and re-homogenized on ice. The homogenized membranes were then processed through a syringe equipped with a 26 gauge needle. Protein concentrations were determined by Bradford Assay and the membranes were stored at −80° C.
Radioligand Binding Studies:
Saturation experiments. A competitive NaV1.7 inhibitor having a methyl group was tritiated. Three tritiums were incorporated in place of methyl hydrogens to generate [^3H]compound. Binding of this radioligand was performed in 5 mL borosilicate glass test tubes at room temperature. Binding was initiated by adding membranes to increasing concentrations of [^3H]compound in 100 mM NaCl, 20 mM Tris HCl, pH 7.4 buffer containing 0.01% w/v bovine serum albumin (BSA) for 18 h. […] After 18 h, the reactants were filtered through GF/C glass fiber filters presoaked in 0.5% w/v polyethylene imine. […] [^3H]compound bound to filters was quantified by liquid scintillation counting.
Competitive Binding Experiments:
Binding reactions were performed in 96-well polypropylene plates at room temperature for 18 h. In 360 μL, membranes were incubated with 100 pM [^3H]compound and increasing concentrations of Test Compound. […] Reactions were transferred and filtered through 96-well glass fiber/C filter plates presoaked with 0.5% polyethylene imine. The filtered reactions were washed 5 times with 200 μL ice cold buffer containing 0.25% BSA. Bound radioactivity was determined by liquid scintillation counting.
Data Analysis: For saturation experiments, non-specific binding was subtracted from total binding to provide specific binding and these values were recalculated in terms of pmol ligand bound per mg protein. Saturation curves were constructed and dissociation constants were calculated using the single site ligand binding model: Beq=(Bmax*X)/(X+Kd), where Beq is the amount of ligand bound at equilibrium, Bmax is the maximum receptor density, Kd is the dissociation constant for the ligand, and X is the free ligand concentration. For competition studies percent inhibition was determined and IC50 values were calculated using a 4 parameter logistic model (% inhibition=(A+((B−A)/(1+((x/C)^D)))) using XLfit, where A and B are the maximal and minimum inhibition respectively, C is the IC50 concentration and D is the (Hill) slope.

T1 sequence (Q15858 whole entry): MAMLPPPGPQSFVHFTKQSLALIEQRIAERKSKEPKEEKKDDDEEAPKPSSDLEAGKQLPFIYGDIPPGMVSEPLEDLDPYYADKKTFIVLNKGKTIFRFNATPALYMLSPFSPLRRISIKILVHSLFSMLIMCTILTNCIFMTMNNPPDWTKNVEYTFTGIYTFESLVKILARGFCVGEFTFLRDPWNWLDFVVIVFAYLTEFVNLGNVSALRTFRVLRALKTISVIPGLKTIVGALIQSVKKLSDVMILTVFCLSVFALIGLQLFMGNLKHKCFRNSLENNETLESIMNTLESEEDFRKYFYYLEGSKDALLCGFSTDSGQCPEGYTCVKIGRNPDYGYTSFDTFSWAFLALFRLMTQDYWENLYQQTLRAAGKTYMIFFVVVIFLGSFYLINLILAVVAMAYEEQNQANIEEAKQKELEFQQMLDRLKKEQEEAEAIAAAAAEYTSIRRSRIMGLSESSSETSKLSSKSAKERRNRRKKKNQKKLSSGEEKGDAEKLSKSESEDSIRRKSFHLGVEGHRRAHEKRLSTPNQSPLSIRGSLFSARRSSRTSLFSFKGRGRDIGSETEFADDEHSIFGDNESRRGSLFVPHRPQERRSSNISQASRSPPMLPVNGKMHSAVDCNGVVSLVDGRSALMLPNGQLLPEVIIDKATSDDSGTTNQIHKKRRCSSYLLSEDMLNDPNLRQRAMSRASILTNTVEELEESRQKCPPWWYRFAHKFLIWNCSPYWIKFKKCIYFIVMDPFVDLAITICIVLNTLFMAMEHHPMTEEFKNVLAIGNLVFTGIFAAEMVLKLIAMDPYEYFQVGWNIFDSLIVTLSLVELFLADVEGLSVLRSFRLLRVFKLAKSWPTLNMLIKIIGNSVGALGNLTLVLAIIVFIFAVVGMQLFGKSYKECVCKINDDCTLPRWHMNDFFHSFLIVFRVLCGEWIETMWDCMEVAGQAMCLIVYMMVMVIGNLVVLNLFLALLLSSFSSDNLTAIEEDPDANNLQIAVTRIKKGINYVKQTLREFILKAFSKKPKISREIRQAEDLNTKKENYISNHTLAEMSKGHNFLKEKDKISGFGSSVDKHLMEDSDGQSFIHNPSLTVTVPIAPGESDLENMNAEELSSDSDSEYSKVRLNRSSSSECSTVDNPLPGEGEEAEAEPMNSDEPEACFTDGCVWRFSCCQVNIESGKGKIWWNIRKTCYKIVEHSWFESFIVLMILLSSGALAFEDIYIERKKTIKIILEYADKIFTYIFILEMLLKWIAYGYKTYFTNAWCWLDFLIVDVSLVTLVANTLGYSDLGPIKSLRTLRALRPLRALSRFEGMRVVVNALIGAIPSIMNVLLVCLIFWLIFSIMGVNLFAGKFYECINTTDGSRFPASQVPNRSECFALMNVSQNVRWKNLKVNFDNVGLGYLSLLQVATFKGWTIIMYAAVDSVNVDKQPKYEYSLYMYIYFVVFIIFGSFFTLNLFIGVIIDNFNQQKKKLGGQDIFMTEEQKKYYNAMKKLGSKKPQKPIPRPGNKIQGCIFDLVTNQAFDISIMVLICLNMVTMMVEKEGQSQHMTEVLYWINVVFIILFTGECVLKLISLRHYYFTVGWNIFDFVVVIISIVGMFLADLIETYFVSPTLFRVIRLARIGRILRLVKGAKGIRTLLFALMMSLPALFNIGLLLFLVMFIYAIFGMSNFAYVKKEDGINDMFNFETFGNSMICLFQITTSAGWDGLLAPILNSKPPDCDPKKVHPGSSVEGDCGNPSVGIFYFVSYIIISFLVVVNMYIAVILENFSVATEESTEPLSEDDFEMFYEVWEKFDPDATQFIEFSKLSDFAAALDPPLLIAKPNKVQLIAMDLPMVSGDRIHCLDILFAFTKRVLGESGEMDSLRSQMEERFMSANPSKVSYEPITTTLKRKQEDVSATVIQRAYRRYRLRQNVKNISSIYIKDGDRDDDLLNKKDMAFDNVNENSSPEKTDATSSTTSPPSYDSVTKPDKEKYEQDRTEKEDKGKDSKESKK
T1 sequence (Q07699 19-218 partner): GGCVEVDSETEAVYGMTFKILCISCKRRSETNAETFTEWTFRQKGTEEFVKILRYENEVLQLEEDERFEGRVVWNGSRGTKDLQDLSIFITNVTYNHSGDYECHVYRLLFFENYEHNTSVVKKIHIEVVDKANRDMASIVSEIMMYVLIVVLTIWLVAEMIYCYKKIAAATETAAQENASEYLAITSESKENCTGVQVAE

Going from `O=S(=O)(Nc1ncns1)c1ccc2c(c1)CCC[C@@H]2N1CCCC[C@@H]1c1ccccc1` (single isomer, unassigned) [Example 56] to `O=S(=O)(Nc1ncns1)c1ccc2c(c1)CCC2N1CCCCC1c1ccccc1` (single isomer, unassigned) [Example 66, 1-(2-phenylpiperidin-1-yl)-N-(1,2,4-thiadiazol-5-yl)-2,3-dihydro-1H-indene-5-sulfonamide], the “Nav1.7 (LBA)” value falls from 1.25 µM to 0.597 µM (2.1-fold).

First: C[C@@H](c1ccc(S(=O)(=O)Nc2ncns2)cc1Cl)N1CCCC[C@@H]1c1ccccc1 (single isomer, unassigned) [Example 59]
Second: C[C@H](c1ccc(S(=O)(=O)Nc2ncns2)cc1Cl)N1CCCC[C@@H]1c1ccccc1 (single isomer, unassigned) [Example 60]
The “Nav1.7 (LBA)” value of the first is 15-fold higher: 5.04 µM for the first, 0.33 µM for the second.

First: C[C@H](c1ccc(S(=O)(=O)Nc2ncns2)cc1Cl)N1CCCC[C@H]1c1ccccc1 (single isomer, unassigned) [Example 61]
Second: CC(C)[C@@H]1CCN([C@H]2CCOc3cc(S(=O)(=O)Nc4ncns4)ccc32)[C@H](c2ccccc2)C1 (single isomer, unassigned) [Example 127]
The “Nav1.7 (LBA)” value of the first is 450-fold higher: 3.98 µM for the first, 0.00883 µM for the second.

Compared with `O=S(=O)(Nc1ncns1)c1ccc2c(c1)OCC[C@@H]2N1CCCC[C@H]1c1ccc(F)cc1` (single isomer, unassigned) [Example 76], `O=S(=O)(Nc1ncns1)c1ccc2c(c1)OCC[C@H]2N1CCCC[C@H]1c1ccc(F)cc1` (single isomer, unassigned) [Example 77] is 11-fold higher in “Nav1.7 (LBA)” value: 0.0179 µM for the first, 0.198 µM for the second.

Compared with `O=S(=O)(Nc1ncns1)c1ccc2c(c1)OCC[C@@H]2N1CCCC[C@@H]1c1ccc(F)cc1` (single isomer, unassigned) [Example 78], `O=S(=O)(Nc1ncns1)c1ccc2c(c1)OCC[C@H]2N1CCCC[C@@H]1c1ccc(F)cc1` (single isomer, unassigned) [Example 79] is 37-fold lower in “Nav1.7 (LBA)” value: 0.679 µM for the first, 0.0186 µM for the second.

Going from `O=S(=O)(Nc1ncns1)c1ccc2c(c1)OCC[C@@H]2N1CCc2ccccc2[C@H]1c1ccccc1` (single isomer, unassigned) [Example 80] to `O=S(=O)(Nc1ncns1)c1ccc2c(c1)OCC[C@H]2N1CCc2ccccc2[C@H]1c1ccccc1` (single isomer, unassigned) [Example 81], the “Nav1.7 (LBA)” value rises from 0.142 µM to 0.435 µM (3.1-fold).

`O=S(=O)(Nc1ncns1)c1ccc2c(c1)OCC[C@@H]2N1CCN(CC(F)(F)F)C[C@H]1c1ccccc1` (single isomer, unassigned) [Example 82] and `O=S(=O)(Nc1ncns1)c1ccc2c(c1)OCC[C@H]2N1CCN(CC(F)(F)F)C[C@H]1c1ccccc1` (single isomer, unassigned) [Example 83] are within 1.5-fold of each other in “Nav1.7 (LBA)” value: 0.0156 µM for the first, 0.0128 µM for the second.

First: O=S(=O)(Nc1ncns1)c1cc2c(cc1F)[C@@H](N1CCCC[C@H]1c1ccccc1)CCO2 (single isomer, unassigned) [Example 84]
Second: O=S(=O)(Nc1ncns1)c1cc2c(cc1F)[C@H](N1CCCC[C@H]1c1ccccc1)CCO2 (single isomer, unassigned) [Example 85]
The “Nav1.7 (LBA)” value of the first is 22-fold lower: 0.00991 µM for the first, 0.218 µM for the second.

Going from `O=S(=O)(Nc1nccs1)c1cc2c(cc1F)[C@@H](N1CCCC[C@H]1c1ccccc1)CCO2` (single isomer, unassigned) [Example 90] to `O=S(=O)(Nc1nccs1)c1cc2c(cc1F)[C@H](N1CCCC[C@H]1c1ccccc1)CCO2` (single isomer, unassigned) [Example 91], the “Nav1.7 (LBA)” value rises from 0.00862 µM to 0.109 µM (13-fold).

First: O=S(=O)(Nc1nccs1)c1cc2c(cc1F)[C@@H](N1CC[C@@H](C(F)(F)F)C[C@H]1c1ccc(F)cc1)CCO2 (single isomer, unassigned) [Example 92]
Second: O=S(=O)(Nc1ncccn1)c1cc2c(cc1F)[C@@H](N1CC[C@@H](C(F)(F)F)C[C@H]1c1ccc(F)cc1)CCO2 (single isomer, unassigned) [Example 97]
The “Nav1.7 (LBA)” value of the first is 26-fold lower: 0.000828 µM for the first, 0.0217 µM for the second.

First: O=S(=O)(Nc1ncccn1)c1cc2c(cc1F)[C@@H](N1CCCC[C@H]1c1ccccc1)CCO2 (single isomer, unassigned) [Example 94]
Second: O=S(=O)(Nc1ncccn1)c1cc2c(cc1F)[C@H](N1CCCC[C@H]1c1ccccc1)CCO2 (single isomer, unassigned) [Example 95]
The “Nav1.7 (LBA)” value of the first is 3.6-fold lower: 0.423 µM for the first, 1.54 µM for the second.

Compared with `O=S(=O)(Nc1cscn1)c1cc2c(cc1F)[C@H](N1CCCC[C@H]1c1ccccc1)CCO2` (single isomer, unassigned) [Example 98], `O=S(=O)(Nc1cscn1)c1cc2c(cc1F)[C@@H](N1CCCC[C@H]1c1ccccc1)CCO2` (single isomer, unassigned) [Example 99] is 20-fold lower in “Nav1.7 (LBA)” value: 1.79 µM for the first, 0.091 µM for the second.

`O=S(=O)(Nc1nccs1)c1ccc2c(c1)OCC[C@@H]2N1CCCC[C@@H]1c1ccc(F)cc1` (single isomer, unassigned) [Example 100] and `O=S(=O)(Nc1nccs1)c1ccc2c(c1)OCC[C@@H]2N1CCCC[C@H]1c1ccc(F)cc1` (single isomer, unassigned) [Example 101] are within 1.5-fold of each other in “Nav1.7 (LBA)” value: 0.0221 µM for the first, 0.022 µM for the second.

Compared with `O=S(=O)(Nc1nccs1)c1ccc2c(c1)OCC[C@@H]2N1CCCC[C@H]1c1ccccc1` (single isomer, unassigned) [Example 102], `O=S(=O)(Nc1nccs1)c1ccc2c(c1)OCC[C@H]2N1CCCC[C@H]1c1ccccc1` (single isomer, unassigned) [Example 103] is 13-fold higher in “Nav1.7 (LBA)” value: 0.072 µM for the first, 0.90 µM for the second.

Compared with `O=S(=O)(Nc1ncns1)c1cc(F)c(CN2CCC3(CC3)C[C@@H]2c2ccccc2)cc1F` (single isomer, unassigned) [Example 109], `O=S(=O)(Nc1ncns1)c1cc(F)c(CN2CC[C@H](O)C[C@@H]2c2ccccc2)cc1F` (single isomer, unassigned) [Example 113] is 5.5-fold higher in “Nav1.7 (LBA)” value: 1.57 µM for the first, 8.59 µM for the second.

First: O=S(=O)(Nc1ncns1)c1cc(F)c(CN2CC[C@@H](OC(F)(F)F)C[C@H]2c2ccccc2)cc1F (single isomer, unassigned) [Example 111]
Second: CC(C)[C@@H]1CCN([C@@H]2CCOc3cc(S(=O)(=O)Nc4ncns4)ccc32)[C@H](c2ccccc2)C1 (single isomer, unassigned) [Example 128]
The “Nav1.7 (LBA)” value of the first is 5.1-fold lower: 0.0923 µM for the first, 0.469 µM for the second.

Going from `O=S(=O)(Nc1ncns1)c1ccc2c(c1)OCC[C@@H]2N1CCCC[C@H]1c1cccnc1` (single isomer, unassigned) [Example 121] to `O=S(=O)(Nc1ncns1)c1ccc2c(c1)OCC[C@H]2N1CCCC[C@H]1c1cccnc1` (single isomer, unassigned) [Example 122], the “Nav1.7 (LBA)” value falls from 0.0237 µM to 0.0125 µM (1.9-fold).

Going from `Cn1nccc1[C@@H]1C[C@H](C(F)(F)F)CCN1[C@H]1CCOc2cc(S(=O)(=O)Nc3ncns3)ccc21` (single isomer, unassigned) [Example 123] to `Cn1nccc1[C@@H]1C[C@H](C(F)(F)F)CCN1[C@@H]1CCOc2cc(S(=O)(=O)Nc3ncns3)ccc21` (single isomer, unassigned) [Example 124], the “Nav1.7 (LBA)” value rises from 0.000616 µM to 0.601 µM (980-fold).

Compared with `Cn1nccc1[C@H]1C[C@@H](C(F)(F)F)CCN1[C@H]1CCOc2cc(S(=O)(=O)Nc3ncns3)ccc21` (single isomer, unassigned) [Example 125], `Cn1nccc1[C@H]1C[C@@H](C(F)(F)F)CCN1[C@@H]1CCOc2cc(S(=O)(=O)Nc3ncns3)ccc21` (single isomer, unassigned) [Example 126] is 70-fold higher in “Nav1.7 (LBA)” value: 0.00448 µM for the first, 0.313 µM for the second.

First: CC(C)[C@H]1CCN([C@H]2CCOc3cc(S(=O)(=O)Nc4ncns4)ccc32)[C@@H](c2ccccc2)C1 (single isomer, unassigned) [Example 129]
Second: CC(C)[C@H]1CCN([C@@H]2CCOc3cc(S(=O)(=O)Nc4ncns4)ccc32)[C@@H](c2ccccc2)C1 (single isomer, unassigned) [Example 130]
The “Nav1.7 (LBA)” value of the first is 6.5-fold lower: 0.0168 µM for the first, 0.109 µM for the second.

Going from `O=S(=O)(Nc1ncns1)c1ccc2c(c1)OCC[C@@H]2N1CCC(F)(F)C[C@@H]1c1ccc(F)cc1` (single isomer, unassigned) [Example 131] to `O=S(=O)(Nc1ncns1)c1ccc2c(c1)OCC[C@H]2N1CCC(F)(F)C[C@@H]1c1ccc(F)cc1` (single isomer, unassigned) [Example 132], the “Nav1.7 (LBA)” value rises from 0.00851 µM to 0.0757 µM (8.9-fold).
